Read-outs that look alike come from different tables or passages of the source. Ends that are not written are not given here.
Experiments:
HIV-1 Res 2 (L33S) = format: cell-based; settings: Table 2
Experimental: (§1) All viral infectivity and cell-cell fusion experiments were performed as described in Chan, D., et. al., 1998, Proc. Natl. Acad. Sci. U.S.A. 95, 15613-15617. Briefly, the potency of C-peptides in inhibiting viral infection was determined using recombinant luciferase-expressing HIV-1 as described by Malashkevich, V. N., et. al., 1998, Proc. Natl. Acad. Sci. USA 95, 9134-9139. To produce virus, 293T cells were co-transfected with the envelope-deficient HIV-1 genome NL43LucR-E-(21) and the HXB2 gp160 expression vector pCMVHXB2 gp160 using calcium phosphate. Viral supernatants were cleared of cellular debris by low-speed centrifugation and used to infect HOS-CD4/Fusin cells (N. Landau, National Institutes of Health AIDS Reagent Program) in the presence of varying concentrations of C-peptide, ranging from 0 to 200 nM. Cells were harvested 48 hr postinfection, and luciferase activity was measured in a Wallac (Gaithersburg, Md.) AutoLumat LB953 luminometer. The IC50 is the peptide concentration that results in a 50% decrease in activity relative to control samples lacking peptide. For each peptide, data from three experiments were fit to a Langmuir equation [y=k/(1+([peptide]/IC50)], where y=luciferase activity and k is a scaling constant] to obtain the IC50 values.
(§2) HOS-CD4-Les cells were infected with HIV-1 pseudotyped with Env from HXB2 HIV-1 strain of either the wild type sequence or one of three variant sequences that confer resistance to C-peptides. The sequences of Res1 and Res2 Env, defined in FIG. 1, contain mutations in the gp41 HR1 region that decrease C-peptide binding affinity. The sequence of Res3 contains a mutation in the gp41 HR2 region (N637K) that confers partial resistance by enhancing the rate of viral membrane fusion. The IC50 (±SEM) values represent the mean of 2 or 3 independent titrations of the indicated C-peptide.

[1] = tested on: HIV-1 pseudotyped with Res 3 Env (HR2 mutant, N637K), HXB2; format: cell-based
Experimental: as §1, §2

[2] = tested on: HIV-1 pseudotyped with wild type Env from strain HXB2 (HOS-CD4 target cells); format: cell-based
Experimental: as §1, §2
(§3) The C37 variants generated were able to overcome resistance conferred by the HR1 region mutations. In FIG. 2, viruses pseudotyped with either wild type Env (closed squares) or V549E mutant Env (Res1, closed circles) from strain HXB2 were utilized to infect HOS-CD4-Les target cells. Infection took place in the presence and absence of C37 (FIG. 2A), C37-KYI (FIG. 2B) or (C37-GC)2 (FIG. 2C) and quantified by the expression of a luciferase-reporter construct. The IC50 values are indicated on the graph. A mutant variant of C37 with two substitutions (N637K and T6391), hereafter denoted C37-KYI, binds to a structural mimic of the gp41 HR1 region, the N-peptide known as N36 with an estimated equilibrium dissociation constant (Kd) of 40 fM, more than 20-fold lower than the Kd for wild type C37 (FIG. 2). The Hr1 and HR2 regions of three gp41 form an intermediate structure called the trimer-of-hairpins which is necessary for the viral entry process and membrane fusion with the host membrane.

[3] = tested on: HIV-1 pseudotyped with V549E mutant Env (Res1, V38E) from strain HXB2; format: cell-based
Experimental: as §1, §2, §3

HIV-1 Res 4 (SDTV) = format: cell-based; settings: Table 2
[4] = tested on: HIV-1 with resistance mutations at the gp41 HR1 region; test: Viral infectivity, C-peptide-resistant HIV-1 (HR1 region resistance mutations, text statements); format: cell-based
Experimental: as §1, with “values. […]” for “values.”

HIV entry = settings: read-out: IC50 against HIV entry; cited from earlier work
[5] = tested on: HIV-1 with resistance mutations at the gp41 HR1 region; settings: read-out: IC50 after emergence of resistance mutations; cited from earlier work
[6] = Table 2, read-out: IC50, WT HXB2
[7] = Table 1, HXB2 wild type Env, HOS-CD4-Les cells, mean of 2 or 3 titrations, read-out: IC50 (±SEM), WT Env

| Compound | IC50 (HIV-1 Res 2 (L33S)) [nM] | IC50 ([1]; Table 2, read-out: IC50, Res 3 (N123K/L204I)) [nM] | IC50 [2, 6] [nM] | IC50 ([2]; read-out: IC50 against viruses pseudotyped with EnvHXB2) [nM] | IC50 ([3]; Table 2, read-out: IC50, Res 1 (V38E)) [nM] | IC50 (HIV-1 Res 4 (SDTV)) [nM] | fold reduction in inhibitory potency by HR1 region resistance mutations [4] [fold] | IC50 [2, 7] [nM] | inhibition of wild type virus compared to monomeric C37 ([2]; in words) | IC50 ([3]; Table 1, HOS-CD4-Les cells, read-out: IC50 (±SEM), Res 1 Env (HR1 mutant)) [nM] | IC50 (HIV entry) [nM] | IC50 ([1]; Table 1, HOS-CD4-Les cells, read-out: IC50 (±SEM), Res 3 Env (HR2 mutant)) [nM] | IC50 [5] [nM] |
| --- | --- | --- | --- | --- | --- | --- | --- | --- | --- | --- | --- | --- | --- |
| CC[C@H](C)[C@H](NC(=O)[C@H](CC(C)C)NC(=O)[C@H](CO)NC(=O)[C@H](Cc1c[nH]cn1)NC(=O)[C@@H](NC(=O)[C@H](CC(C)C)NC(=O)[C@H](CO)NC(=O)[C@@H](NC(=O)[C@H](Cc1ccc(O)cc1)NC(=O)[C@H](CC(N)=O)NC(=O)[C@H](CC(N)=O)NC(=O)[C@@H](NC(=O)[C@H](CCC(=O)O)NC(=O)[C@H](CCCNC(=N)N)NC(=O)[C@H](CC(=O)O)NC(=O)[C@H](Cc1c[nH]c2ccccc12)NC(=O)[C@H](CCC(=O)O)NC(=O)[C@H](CCSC)NC(=O)[C@H](Cc1c[nH]c2ccccc12)NC(=O)[C@@H](NC(=O)[C@@H](NC(=O)[C@H](Cc1c[nH]cn1)NC(=O)CNC(=O)CN)[C@@H](C)O)[C@@H](C)O)[C@@H](C)CC)[C@@H](C)O)[C@@H](C)CC)C(=O)N[C@@H](CCC(=O)O)C(=O)N[C@@H](CCC(=O)O)C(=O)N[C@@H](CO)C(=O)N[C@@H](CCC(N)=O)C(=O)N[C@@H](CC(N)=O)C(=O)N[C@@H](CCC(N)=O)C(=O)N[C@@H](CCC(N)=O)C(=O)N[C@@H](CCC(=O)O)C(=O)N[C@@H](CCCCN)C(=O)N[C@@H](CC(N)=O)C(=O)N[C@@H](CCC(=O)O)C(=O)N[C@@H](CCC(N)=O)C(=O)N[C@@H](CCC(=O)O)C(=O)N[C@@H](CC(C)C)C(=O)N[C@@H](CC(C)C)C(=O)NCC(=O)NCC(=O)N[C@@H](Cc1c[nH]cn1)C(=O)N[C@@H](Cc1c[nH]cn1)C(=O)N[C@@H](Cc1c[nH]cn1)C(=O)N[C@@H](Cc1c[nH]cn1)C(=O)N[C@@H](Cc1c[nH]cn1)C(=O)N[C@@H](Cc1c[nH]cn1)C(=O)O [C37] | 1.3 ± 0.4 | 7.1 ± 3.6 | 1.3 ± 0.2 | ~1 | 126 ± 24 | 53 ± 15 | 100 | – | – | – | – | – | – |
| (C37-GC)2: Disulfide-crosslinked dimeric C37 variant containing a Cys residue at the peptide's C-terminus (added Gly-Cys) (HTTWMEWDREINNYTSLIHSLIEESQNQQEKNEQELLGC; also: disulfide-crosslinked homodimer via C-terminal Cys) | – | – | – | – | – | – | – | 0.3 | not significantly better | 0.3 | – | – | – |
| enfuvirtide | – | – | 2.3 ± 1 | – | – | 900 ± 150 | – | 1.7 ± 0.4 | – | – | ~1 | 6.4 ± 1.5 | > 900 |

— patent publication US20100029568A1, “TIGHTER-BINDING C-PEPTIDE INHIBITORS OF HIV-1 ENTRY” (priority 2007, published 2010)
